The text below walks through data of ChEMBL document CHEMBL5625204, “Synthesis and pharmacodynamic evaluation of naphthalene derivatives against influenza A virus in vitro and in vivo” (Eur J Med Chem, 2023).

A short description of data set [1]: Selectivity index, ratio of CC50 for dog MDCK cells to EC50 for antiviral activity against Influenza A virus H1N1 (A/Weiss/43) infected in MDCK cells treated for 72 hrs after viral adsorption. The format is toxicity, cell-based. Conditions: read-out: Ratio CC50/EC50.
Data set [2] has as its system Influenza A virus. Briefly: Antiviral activity against Influenza A virus H1N1 (A/Weiss/43) infected in MDCK cells assessed as reduction of viral replication treated for 72 hrs after viral adsorption by TCID50 method. The class given is functional, organism-based.
The nature of data set [3]: Cytotoxicity against dog MDCK cells assessed as reduction in cell viability incubated for 72 hrs by MTT assay. The class given is toxicity, cell-based, Canis lupus familiaris. In general terms: Tetrazolium assays rely on reduction of a dye to a coloured formazan, in cell work by metabolically active cells.
The subject of data set [4] is Influenza A virus. Briefly: Antiviral activity against Influenza A virus H1N1 (A/Weiss/43)-infected in BALB/c mouse assessed as reduction in lung index at 50 mg/kg/day administered intranasally for 6 days starting from 3 hrs post-viral infection. The class given is functional. As to conditions: 144 h, route nas, time 6 day.
Data set [5] deals with Influenza A virus. Briefly: Antiviral activity against Influenza A virus H3N2 (A/California/2004) infected in MDCK cells assessed as reduction of viral replication incubated for 72 hrs by TCID50 method. The class given is functional, organism-based.
For data set [6], the system named is Influenza A virus. Briefly: Antiviral activity against Influenza A virus H1N1 infected in dog MDCK cells assessed as decrease in apoptosis by measuring proportion of late apoptotic cells at 50 uM measured after 72 hrs by AnnexinV-FITC/PI staining based flow cytometry (reference value: 10.3%). The format is functional. Further details: scale not given: the % may be the effect or the level left. Background: Flow cytometry measures light scatter and fluorescence of single cells or particles in a stream.

The test system of data set [7] is Influenza A virus. Briefly: Antiviral activity against Influenza A virus H1N1 (A/Virginia/ATCC2/2009) infected in MDCK cells assessed as reduction of viral replication incubated for 72 hrs by TCID50 method. The class given is functional, organism-based.
Data set [8] can be described thus: Selectivity index, ratio of CC50 for dog MDCK cells to EC50 for antiviral activity against Influenza A virus H3N2 (A/California/2004) infected in MDCK cells. Conditions: read-out: Ratio CC50/EC50. The format is toxicity, cell-based.
Data set [9] concerns Influenza A virus. Briefly: Antiviral activity against Influenza A virus H1N1 (A/Weiss/43)-infected in BALB/c mouse assessed as reduction in pulmonary inflammation at 50 mg/kg/day administered intranasally for 6 days starting from 3 hrs post-viral infection by Hematoxylin-Eosin staining based analysis. The class given is functional, organism-based. Conditions: route nas, time 6.0 day.

For data set [10], the system named is Influenza A virus. Briefly: Antiviral activity against Influenza A virus H1N1 (A/Weiss/43)-infected in dog MDCK cells assessed as reduction in oxidative stress by measuring proportion of cells with excessive ROS accumulation at 50 uM treated at 2 hrs post-infection and measured after 36 hrs by DCFH-DA staining based flow cytometry (reference value: 30.6%). The format is functional. Further details: scale not given: the % may be the effect or the level left.

Data set [11] in a line: Selectivity index, ratio of CC50 for dog MDCK cells to EC50 for antiviral activity against Influenza A virus H1N1 (A/Virginia/ATCC2/2009) infected in MDCK cells. The format is toxicity, cell-based. Conditions: read-out: Ratio CC50/EC50.
Data set [12] has as its system Influenza A virus. Briefly: Antiviral activity against Influenza A virus H1N1 (A/Weiss/43)-infected in dog MDCK cells assessed as reduction in oxidative stress by measuring proportion of normal cells at 50 uM treated at 2 hrs post-infection and measured after 36 hrs by DCFH-DA staining based flow cytometry (reference value: 69.4%). Details: scale not given: the % may be the effect or the level left. The format is functional.

In data set [13] the test system is Influenza A virus. Briefly: Antiviral activity against Influenza A virus H1N1 infected in dog MDCK cells assessed as decrease in apoptosis by measuring proportion of viable cells at 50 uM measured after 72 hrs by AnnexinV-FITC/PI staining based flow cytometry (reference value: 62.9%). The class given is functional.
Data set [14] concerns Influenza A virus. Briefly: Antiviral activity against Influenza A virus H1N1 infected in dog MDCK cells assessed as decrease in apoptosis by measuring proportion of early apoptotic cells at 50 uM measured after 72 hrs by AnnexinV-FITC/PI staining based flow cytometry (reference value: 24.3%). The class given is functional. Details: scale not given: the % may be the effect or the level left.

The subject of data set [15] is Influenza A virus. Briefly: Antiviral activity against Influenza A virus H1N1 infected in dog MDCK cells assessed as decrease in apoptosis by measuring proportion of necrotic cells at 50 uM measured after 72 hrs by AnnexinV-FITC/PI staining based flow cytometry (reference value: 2.47%). The class given is functional. Further details: scale not given: the % may be the effect or the level left.

The test system of data set [16] is Influenza A virus. Briefly: Antiviral activity against Influenza A virus H1N1 (A/Weiss/43) infected in MDCK cells assessed as reduction of viral replication at 0.625 to 100 uM incubated for 72 hrs by TCID50 method. Conditions: dose 0.625-100 µM. The format is functional, organism-based.
For data set [17], the system named is Influenza A virus. Briefly: Inhibition of Influenza A virus Neuraminidase at 100 to 300 uM pretreated with enzyme for 5 mins followed by fluorogenic substrate addition and measured for 1 hr by fluorescence based analysis. Conditions: dose 100-300 µM, time 65.0 min.

Active and inactive are the calls of the source. The rule behind the calls is not given here.

For the compound `Cc1ccc(S(=O)(=O)N(Cc2ccccc2)C2=CCOc3ccccc32)cc1`, the selectivity ratio at 72 h in [1] stood at 16.6. Besides, the concentration for a half-maximal effect (EC50) in the data set on Influenza A virus [2] was 76.6 µM. Further, the 50% cytotoxic concentration (CC50) at 72 h in [3] is 1270 µM.
On the same counts, the results for `CS(=O)(=O)N(C1=CCCc2ccccc21)c1ccccc1` are 6.78, 50.8 µM and 345 µM.
With `NC(=O)c1ncn([C@@H]2O[C@H](CO)[C@@H](O)[C@H]2O)n1` [RIBAVIRIN], the selectivity ratio at 72 h in [1] is 54.4. In the data set with Influenza A virus [4], the inhibition in vivo at 50 mg/kg/day came to 40%. Besides, the values for the concentration for a half-maximal effect (EC50) in the data set with Influenza A virus [5], in the data set on Influenza A virus [7] and in the data set with Influenza A virus [2] were 24.8 µM, 18.5 µM and 13 µM, respectively. Besides, the Activity with Influenza A virus [6] is 2.43%; with Influenza A virus [10], 7.48%; with Influenza A virus [12], 92.5%; with Influenza A virus [13] it was 93.2%; in the data set on Influenza A virus [14] it was 2.76%; with Influenza A virus [15], 1.56%. Moreover, the selectivity ratio in data set [8] came to 28.5; in [11], 38.3. For the same compound, in the data set with Influenza A virus [9], the result was Active. The cytotoxic concentration (CC50) at 72 h in data set [3] was 707 µM.
In the case of `CCCCN(C1=CCCc2ccccc21)S(=O)(=O)c1ccc(C)cc1`, in data set [1], the selectivity ratio at 72 h is 29.3. Further, the EC50 with Influenza A virus [2] turned out to be 39.8 µM. Also, the CC50 at 72 h in [3] came out at 1170 µM.
In the same order, the values of `COc1ccc2c(c1)c(NS(=O)(=O)c1ccc(C)cc1)cc1ccccc12` are > 11.5, 69.5 µM and > 800 µM.
On to `C=CCN(C1=CCCc2ccccc21)S(=O)(=O)c1ccc(C)cc1`, for which the outcome in the data set on Influenza A virus [16] was inactive. For the same compound, in [3], the CC50 at 72 h was determined as 127 µM.
On the same counts, the results for `O=C1OCCN1c1cc2ccccc2c2ccccc12` are “inactive” and 212 µM.
On the same counts, the results for `O=C1OCCN1c1cccc2ccccc12` are “inactive” and > 800 µM.
As for `O=S(=O)(c1ccc(Cl)cc1)N(Cc1ccccc1)c1cc2ccccc2c2ccccc12`, the selectivity ratio at 72 h in data set [1] was > 26.7. The EC50 in the data set on Influenza A virus [2] turned out to be 30.1 µM. In data set [3], the CC50 at 72 h was > 800 µM.
`Cc1ccc(S(=O)(=O)N(Cc2ccccc2)c2cc3ccccc3c3ccc4ccccc4c23)cc1`: the outcome in the data set with Influenza A virus [16] was inactive. The CC50 at 72 h in data set [3] is > 800 µM.
Consider `C=CCN(c1cc2ccccc2c2ccccc12)S(=O)(=O)c1ccc(C)cc1`, for which the result in the data set on Influenza A virus [16] was inactive. For the same compound, the CC50 at 72 h in data set [3] was determined as 61.2 µM.
For `CCOC(=O)C1=C[C@@H](OC(CC)CC)[C@H](NC(C)=O)[C@@H](N)C1` [OSELTAMIVIR], the selectivity ratio at 72 h in [1] is > 471. The inhibition in vivo at 50 mg/kg/day with Influenza A virus [4] turned out to be 33.1%. Besides, the EC50 in the data set with Influenza A virus [5] was 5.9 µM; with Influenza A virus [7] it was 1.71 µM; with Influenza A virus [2], 1.7 µM. In addition, the selectivity ratio in data set [8] was > 136; in [11], > 468. Also, the outcome in the data set with Influenza A virus [9] was Active. Further, the CC50 at 72 h in [3] was > 800 µM. In the data set on Influenza A virus [17], the inhibition result was “Active”.
Regarding `COc1ccc2c(c1)c(N(Cc1ccccc1)S(=O)(=O)c1ccc(C)cc1)cc1ccccc12`, the selectivity ratio at 72 h in data set [1] is > 36.8. In addition, the EC50 with Influenza A virus [2] was determined as 21.8 µM. The 50% cytotoxic concentration (CC50) at 72 h in data set [3] was > 800 µM.
Regarding `CS(=O)(=O)N(Cc1ccccc1)c1cc2ccccc2c2ccccc12`, the result in the data set on Influenza A virus [16] was inactive. Moreover, the CC50 at 72 h in data set [3] is > 800 µM.
In the same order, the values of `O=S(=O)(c1ccc(Cl)cc1)N(Cc1ccccc1)c1cccc2ccccc12` are “inactive” and > 800 µM.
As to `Cc1ccc(S(=O)(=O)N(Cc2ccccc2)c2cc3ccccc3c3ccc(C)cc23)cc1`, the selectivity ratio at 72 h in data set [1] was > 22. Also, the half-maximal effective concentration (EC50) in the data set on Influenza A virus [2] was found to be 36.4 µM. Moreover, in data set [3], the CC50 at 72 h was > 800 µM.
As for `COc1ccc(S(=O)(=O)N(Cc2ccccc2)c2cc3ccccc3c3ccccc23)cc1`, the outcome in the data set on Influenza A virus [16] was inactive. For the same compound, the cytotoxic concentration (CC50) at 72 h in data set [3] is 288 µM.
Turning to `O=C1OCCN1C1=CCCc2ccccc21`, the outcome with Influenza A virus [16] was inactive. Moreover, in data set [3], the CC50 at 72 h was 301 µM.
On the same counts, the results for `O=[N+]([O-])c1ccc(S(=O)(=O)N(Cc2ccccc2)c2cc3ccccc3c3ccccc23)cc1` are “inactive” and 726 µM.
Consider `Cc1ccc(S(=O)(=O)N(Cc2ccccc2)c2cc3ccccc3c3ccccc23)cc1`, for which, in the data set with Influenza A virus [16], the result was inactive. For the same compound, the cytotoxic concentration (CC50) at 72 h in data set [3] was > 800 µM.

What is called EC50 is the concentration that produces a half-maximal response. As usually defined, the CC50 is the concentration that lowers cell viability or growth by half. For orientation: inhibition in vivo means the change of the read-out against control, counted positive when it falls.
